Here are results for seven compounds from PubChem BioAssay (NCI).

In general, TGI refers to the concentration giving total growth inhibition.

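Tested at 5 concentrations; 48 h exposure; 96-well plates; endpoints linearly interpolated, else capped at highest concentration. The concentration for full growth arrest is given as TGI.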 Bounds are passed on as bounds.

Test systems include CAKI-1 renal; K-562 leukemia; KM20L2 colon; M19-MEL melanoma; MOLT-4 leukemia; NCI-H226 lung; SK-MEL-5 melanoma; SK-OV-3 ovarian; SNB-75 CNS; MCF7 breast.
Assay in all cases: DTP human tumour cell line panel, 48 h

On to `COc1cc2c3c(c1OC)Oc1ccc(cc1)CC1c4c(cc(OC)c(OC)c4Oc4ccc(cc4)CC3N(C)CC2)CCN1C` (centres undefined), for which the TGI in the experiment with CAKI-1 renal is more than 100 µM; in the experiment with K-562 leukemia it was 35.5 µM; in the experiment on KM20L2 colon, 45.2 µM; with M19-MEL melanoma, 31.3 µM; in the experiment on MOLT-4 leukemia, 63.2 µM; in the experiment on NCI-H226 lung, 55.5 µM. Besides, the values for the TGI in the experiment on SK-MEL-5 melanoma, with SK-OV-3 ovarian and with SNB-75 CNS were 31.7 µM, 84.1 µM and 49.2 µM, respectively.

As to `O=C(Nc1ccccc1C(=O)O)C(=O)C(C(=O)c1ccccc1-c1ccccc1)C1OC(=O)c2ccccc21` (centres undefined), the concentration for total growth inhibition (TGI) was more than 100 µM in the experiment with CAKI-1 renal; more than 100 µM with K-562 leukemia; 44 µM with KM20L2 colon; 64.2 µM with M19-MEL melanoma; more than 100 µM in the experiment with MOLT-4 leukemia; 29.3 µM with NCI-H226 lung. Besides, the TGI in the experiment on SK-MEL-5 melanoma came to 33.9 µM; in the experiment with SK-OV-3 ovarian, 94 µM; in the experiment on SNB-75 CNS it was 53.5 µM.

As for `c1ccc(-c2[nH]c(-c3ccccc3)c(-c3cnccn3)c2-c2cnccn2)cc1`, the TGI in the experiment with CAKI-1 renal, in the experiment with K-562 leukemia, with KM20L2 colon, in the experiment with M19-MEL melanoma, in the experiment on MOLT-4 leukemia and in the experiment with NCI-H226 lung was more than 100 µM each time. Besides, the concentration for total growth inhibition (TGI) in the experiment on SK-MEL-5 melanoma, in the experiment with SK-OV-3 ovarian and in the experiment on SNB-75 CNS was more than 100 µM throughout.

Consider `COc1cccc2c1[C@]1(O)C(O)CCCC21` (some centres undefined), for which the total growth inhibition concentration (TGI) in the experiment with CAKI-1 renal, in the experiment on K-562 leukemia, with KM20L2 colon, in the experiment on M19-MEL melanoma, in the experiment on MOLT-4 leukemia and with NCI-H226 lung was more than 100 µM in each case. Also, the TGI in the experiment on SK-MEL-5 melanoma, with SK-OV-3 ovarian and in the experiment on SNB-75 CNS was more than 100 µM in each case.

Regarding `CCOC(=O)NC(=O)c1cn(C2OC(CO)C(O)C2O)c(=O)[nH]c1=O` (centres undefined), the TGI in the experiment on CAKI-1 renal, in the experiment with K-562 leukemia, with KM20L2 colon, with M19-MEL melanoma, in the experiment with MOLT-4 leukemia and with NCI-H226 lung was more than 100 µM each time. Also, the total growth inhibition concentration (TGI) in the experiment with SK-MEL-5 melanoma, in the experiment on SK-OV-3 ovarian and in the experiment on SNB-75 CNS was more than 100 µM throughout.

`COc1cccc2ccc3c(c12)C(=O)OC31CCc2c(C)cccc21` (centres undefined): the total growth inhibition concentration (TGI) in the experiment with CAKI-1 renal was more than 46.4 µM; in the experiment with K-562 leukemia it was 89.5 µM; in the experiment on KM20L2 colon, more than 31.6 µM; in the experiment on M19-MEL melanoma, more than 31.6 µM; with MCF7 breast it was 41.9 µM; with MOLT-4 leukemia, 33.7 µM. Further, the TGI with NCI-H226 lung is more than 31.6 µM; in the experiment with SK-MEL-5 melanoma, 19.5 µM; in the experiment on SK-OV-3 ovarian it was more than 46.4 µM; in the experiment with SNB-75 CNS, 45.1 µM.

Take `O=C1C2=C(c3ccccc31)C(c1ccc(Cl)cc1)NC(=S)N2` (centres undefined): the concentration for total growth inhibition (TGI) in the experiment with CAKI-1 renal amounted to 78.3 µM; in the experiment with K-562 leukemia, 40.2 µM; in the experiment on KM20L2 colon, 37.4 µM; in the experiment on M19-MEL melanoma it was 37.2 µM; with MOLT-4 leukemia, 41.3 µM; in the experiment with NCI-H226 lung, 67.7 µM. The TGI in the experiment with SK-MEL-5 melanoma was more than 100 µM; with SK-OV-3 ovarian it was more than 100 µM; in the experiment with SNB-75 CNS, 34 µM.
